Measurements: patent US20080145465A1, “Sesquiterpene lactone extract from artemisia leucodes for reducing inflammation and down-regulating pro-inflammatory gene expression” (priority 2006, published 2008)
Converted amounts (≈) assume the structure as drawn. “And” between values parts separate entries of the source, which are not always exact repeats. Identical values can stand only once. Like-named read-outs stand apart in the source and are kept apart here.

How the values were obtained:
[1] = system: nitric oxide (NO) production from RAW macrophages; assay: Griess assay for NO production by LPS-stimulated RAW macrophages; format: cell-based, murine; conditions: for NO production (relative to control), mean ± SE: LPS 1 μg/mL, 24 hours, n = 8, % of control; for IC50: read-out: IC50, inhibition of NO production
Protocol: RAW 264.7 murine monocyte/macrophages (ATCC TIB-71) were maintained in Dulbecco's Modified Eagle Medium (D-MEM, Invitrogen Corp., Carlsbad, Calif.) supplemented with 10% fetal bovine serum (FBS, Invitrogen Corp., Carlsbad, Calif.) and 1% streptomycin and were kept in a humidified 37° C. incubator with 5% CO2. Cells were subcultured by scraping when plates reached 90% confluency with a 1:5 ratio.
Down-regulation of various pro-inflammatory genes including iNOS, IL1β, and TNF-α can reduce nitric oxide production by macrophages. In order to confirm that changes in pro-inflammatory gene expression were affecting cellular function, the Griess assay was performed to indirectly measure nitric oxide production by LPS-induced macrophages by measuring nitrite (Misko et al., 1993). For the assay, RAW cells were plated in a 24-well plate at a minimum density of 0.4×10^6 cells/well and grown for 24 hours. A stock solution of AL-1 was created by completely dissolving dry extract as in Example 1 in 95% ethanol. Cells were stimulated with 1 μg/mL LPS with simultaneous addition of AL-1 (10-100 μg/mL), aspirin (10 mM), or vehicle control (0.5% ethanol), maintaining a final concentration of 0.5% ethanol for every treatment. After 24 hours, conditioned media (50 μl) was removed and immediately mixed with 100 μl of Griess reagent (10% sulfanilamide, 1% naphthalene-ethylenediamine dihydrochloride in 5% H3PO4, all from Sigma, St. Louis, Mo.). After incubation for 15 minutes at room temperature, the samples were read at 550 nm using a microplate spectrophotometer (Molecular Devices, Sunnyvale, Calif.). Data for each treatment were normalized based on results from an MTS cell proliferation assay.
A CellTiter 96 assay kit (Promega Corp. Madison, Wis.) was used to determine the relative number of viable cells remaining after incubation with treatments. For the assay, old media containing treatments or controls was removed from the 96-well plates and replaced with 100 μL fresh media per well. Next, 20 μL MTS/PMS reagent ([3-(4,5-dimethylthiazol-2-yl)-5-(3-carboxymethoxyphenyl)-2-(4-sulfophenyl)-2H-tetrazolium plus phenazine methosulfate) was added to each well followed by a three hour incubation period at 37° C., 5% CO2. Plates were read using a microplate reader (Molecular Devices, Sunnyvale, Calif.) at 490 nm. A blank row corrected for background noise and data was expressed as a percent of the LPS control. Each treatment was tested on three different plates with 8 wells on each plate for a total of 24 wells.

COX-2 = target: T1, COX-2 (Ovis aries, UniProt P79208); assay: Colorimetric COX inhibitor screening assay, COX-2; format: biochemical, ovine
T1 construct: purchased Cayman Chemical Company
T1 sequence (P79208 17-603): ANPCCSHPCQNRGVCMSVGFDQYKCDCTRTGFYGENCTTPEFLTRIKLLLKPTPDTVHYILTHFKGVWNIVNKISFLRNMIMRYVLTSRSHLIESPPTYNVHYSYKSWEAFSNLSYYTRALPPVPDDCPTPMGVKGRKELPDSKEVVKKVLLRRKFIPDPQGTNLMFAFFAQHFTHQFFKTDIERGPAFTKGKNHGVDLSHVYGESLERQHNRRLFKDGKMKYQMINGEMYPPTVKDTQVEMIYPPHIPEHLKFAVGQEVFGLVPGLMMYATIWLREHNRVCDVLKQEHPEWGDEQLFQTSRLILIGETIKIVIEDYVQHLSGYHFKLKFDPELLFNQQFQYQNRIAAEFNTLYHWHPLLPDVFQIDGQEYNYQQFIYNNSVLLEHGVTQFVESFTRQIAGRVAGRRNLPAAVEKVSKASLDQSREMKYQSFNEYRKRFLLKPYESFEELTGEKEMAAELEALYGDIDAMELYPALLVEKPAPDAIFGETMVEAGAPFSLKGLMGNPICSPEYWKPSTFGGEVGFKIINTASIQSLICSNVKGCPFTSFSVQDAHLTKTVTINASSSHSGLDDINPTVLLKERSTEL
Protocol: An ovine COX inhibitor screening assay (Cayman Chemical Company, Ann Arbor, Mich.) was used to measure inhibition of purified COX-1 and COX-2. This assay measures the peroxidase component of cyclooxygenases colorimetrically by monitoring the appearance of oxidized N,N,N′,N′-tetramethyl-p-phenylenediamine (TMPD) at 590 nm. Tablets of Vioxx (rofecoxib; Merck & Co., Inc., Whitehouse Station, N.J.) were ground and dissolved in methanol (1 mg/mL) to use as a positive control. AL-1, leukomisin, and austricin were also dissolved in methanol at 1 mg/mL. The assay was performed following manufacturer instructions. Vioxx, vehicle (100% initial activity), or treatments were added to a 96-well plate along with 180 μL assay mixture provided by the manufacturer containing 150 μL assay buffer, 10 μL heme, and 10 μL enzyme (COX-1 or COX-2). A background correction row received no enzyme and 10 μL additional assay buffer. After 5 min incubation at room temp, 20 μL of a colorimetric substrate solution containing TMPD and 20 μL arachadonic acid diluted in assay buffer were added to the plate. The plate was incubated for 5 min and the absorbance was read at 590 nm using a microplate reader (Molecular Devices, Sunnyvale, Calif.). To calculate percent inhibition, average absorbance was calculated for each sample (n=3). The background blank well absorbance was subtracted from each sample.
[(100% Initial activity-Blank)−(Treatment-Blank)/(100% Initial activity-Blank)]*100

[2] = system: nitric oxide (NO) production from RAW macrophages; assay: Griess assay for NO production by LPS-stimulated RAW macrophages; format: cell-based, murine; conditions: LPS 1 μg/mL, 24 hours, n = 8, % of control
[3] = read-out: percent inhibition of COX-2 enzyme activity, mean ± SE

Compound | NO production (relative to control), mean ± SE ([1]; 20 μg/ml) [%] | NO production (relative to control), mean ± SE ([1]; 50 μg/ml) [%] | NO production (relative to control), mean ± SE ([1]; 100 μg/ml) [%] | IC50 ([1]; Mus musculus, Macrophage) | IC50 (COX-2; IC50, COX-2 inhibition, purified ovine COX-2) [mM] | IC50 (COX-2; IC50, COX-2 inhibition, purified ovine COX-2, molar value in brackets) [mM] | inhibition at 45 µg/mL (COX-2; [3]) [%] | inhibition at 115 µg/mL (COX-2; [3]) [%] | inhibition at 225 µg/mL (COX-2; [3]) [%] | NO production (relative to control), mean ± SE ([2]; 2 μg/ml) [%] | NO production (relative to control), mean ± SE ([2]; 4 μg/ml) [%] | IC50, inhibition of NO production ([1]; RAW macrophages elicited with LPS) [µg/mL] | IC50 ([1]; RAW macrophages elicited with LPS, molar value in brackets) [µM] | percent inhibition of COX-2 enzyme activity, mean ± SE (COX-2; 45 μg/ml) [%] | percent inhibition of COX-2 enzyme activity, mean ± SE (COX-2; 115 μg/ml) [%] | percent inhibition of COX-2 enzyme activity, mean ± SE (COX-2; 225 μg/ml) [%] | IC50, COX-2 inhibition (COX-2; purified ovine COX-2) [µg/mL] | IC50 (COX-2; purified ovine COX-2, read-out: IC50, COX-2 inhibition) [mM]
CC1=CC(=O)C2=C(C)C[C@H](O)[C@@H]3[C@H](OC(=O)[C@H]3C)[C@@H]12 (single isomer, unassigned) [austricin] | 89 ± 1 | 89 ± 1 | 84 ± 2 | 440 µg/mL and 1.68 mM | 1.97 | 2 | 19 ± 1 | 29 ± 2 | 31 ± 1 | 100 ± 1 | 100 ± 1 | – | – | – | – | – | – | –
CC1=CC(=O)C2=C(C)CC[C@@H]3[C@H](OC(=O)[C@H]3C)[C@@H]12 [leukomisin] | 82 ± 4 | 72 ± 1 | 64 ± 2 | – | – | – | – | – | – | 100 ± 2 | 98 ± 1 | 160 | 650 | 34 ± 1 | 51 ± 3 | 65 ± 5 | 129 (≈ 524 µM) | 0.524
